The source of these data is US20230139922A1, “BACITRACIN-ALGINATE OLIGOMER CONJUGATES” (AlgiPharma AS, priority 2016, published 2023).

Converted amounts (≈) assume the structure as drawn. Read-outs that look alike come from different tables or passages of the source. Where a SMILES comes first, the peptide text is derived from it. Bridges are numbered along the chain shown (N, C = ends). [ ]: non-standard residue; d: D form. The star is where a group is joined. Ileψ(thiazoline)Cys = CC[C@H](C)[C@H](N)C1=N[C@H](C(=O)*)CS1; dOrn = NCCC[C@@H](N)C(=O)O Bounds are passed on as bounds.

Holding throughout (format): cell-based
For experiment [1], the system named is V33. Briefly: MIC, broth microdilution (CLSI 2012), isolate V33. To be noted: Batch 1; MH broth, 16-20 hours.
The subject of experiment [2] is Gram negative species tested (Pseudomonas aeruginosa, Klebsiella pneumonia, Escherichia coli and Acinetobacter baumannii). Briefly: Antimicrobial activity (MIC) against Gram negative species. The following applies: summary in words. On the procedure: (§1) The strains used for susceptibility testing include both culture collection strains and clinical isolates are recited below. Their known relevant genotypes and origin have been described by Khan et al. supra.
(§2) The MICs of alginate oligomers, bacitracin and alginate oligomer conjugates thereof were determined for isolates V2, V3, VS, V19, E68 and E75 using the broth microdilution method in accordance with standard guidelines (CLSI 2012). Test organisms were suspended in Mueller Hinton cation adjusted (MH) broth (100 μL, 1-5×10^4 CFU/mL) and incubated in 96-well microtitre plates in serial two-fold dilutions of the test compounds. The MIC was defined as the lowest concentration of test compound that produced no visible growth after 16-20 hours.

Experiment [3] deals with Acinetobacter baumannii. As to the method:
as §1, §2

Experiment [4] relates to Escherichia coli. As to the method:
as §1, §2

For experiment [5], the system named is Klebsiella pneumoniae. As to the method:
as §1, §2

Experiment [6] concerns Pseudomonas aeruginosa (301), MDR-PSA isolate. As to the method:
as §1, §2

Experiment [7] has as its system Staphylococcus aureus (Gram positive). Briefly: Antimicrobial activity (MIC) against Gram positive species. To be noted: summary in words. As to the method: as §1, §2

Take `CC[C@H](C)[C@H](N)C1=N[C@H](C(=O)N[C@@H](CC(C)C)C(=O)N[C@H](CCC(=O)O)C(=O)N[C@H](C(=O)N[C@H]2CCCCNC(=O)[C@H](CC(N)=O)NC(=O)[C@@H](CC(=O)O)NC(=O)[C@H](Cc3cnc[nH]3)NC(=O)[C@@H](Cc3ccccc3)NC(=O)[C@H]([C@@H](C)CC)NC(=O)[C@@H](CCCN)NC2=O)[C@@H](C)CC)CS1` [Bacitracin, bacitracin] ({Ileψ(thiazoline)Cys}-L[dE]IK[dOrn]I[dF]H[dD]N; lactam 4-C): the “MIC V33” value in experiment [1] is greater than 128 µg/mL. Further, in experiment [2], the “antimicrobial activity against the Gram negative species tested” value is recorded as “but not the Gram negative species tested”. Also, the “MIC V19” value in experiment [3] is 640 µg/mL (≈ 450 µM); in experiment [3] (Batch 1, MH broth, 16-20 hours), greater than 128 µg/mL. For the same molecule, the “MIC V5” value is 640 µg/mL (≈ 450 µM) in experiment [4] and greater than 128 µg/mL in experiment [4] (Batch 1, MH broth, 16-20 hours). Besides, the “MIC V3” value was greater than 8192 µg/mL in experiment [5] and greater than 128 µg/mL in experiment [5] (Batch 1, MH broth, 16-20 hours). Besides, the “MIC V2” value in experiment [6] (301), MDR-PSA isolate) is greater than 8192 µg/mL; in experiment [6] (Batch 1, MH broth, 16-20 hours) it was greater than 128 µg/mL. In addition, the “antimicrobial activity against Staphylococcus aureus (Gram positive)” value in experiment [7] is on record as “high antimicrobial activity”.
